Data on eight compounds can be found in publication PMC6356859 (ACS Omega, 2019).

Entries after “also recorded” stand apart in the source; their conditions may differ. Where two headings read alike, the source gives them in different places.

The test system of experiment [1] is EBOV. Briefly: microbe, parasite or virus in culture. The experiment is classed as cell-based, Ebola virus.
In experiment [2] the test system is EBOV. Conditions: cited from earlier work.
In experiment [3] the test system is EBOV. As to conditions: read-out: IC50 for the inhibition of virus entry in cells; cited from earlier work.
Experiment [4] relates to EBOV. As to conditions: cited from earlier work. The source holds these as a separate data set.

For orientation: EC50 means the midpoint of the concentration-response curve. A word on the IC50: it is the concentration that gives 50% inhibition. Turning to `NC(=O)c1nc(F)c[nH]c1=O` [Favipiravir (T-705), Favipiravir], the “EBOV activity (in words)” value in experiment [1] is “inactive; also recorded: no activity at the concentrations tested”. Moreover, in experiment [2], the EC50 is 10 to 63 µg/mL and the IC50 was 67 µM. With `Nc1nc2c(ncn2COCCO)c(=O)[nH]1` [Acyclovir], the “EBOV activity (in words)” value in experiment [1] is “lacked an activity”. Same read-out and setting: as for `CCCCN(CCCC)CC(O)c1cc(Cl)cc2c1-c1ccc(Cl)cc1/C2=C/c1ccc(Cl)cc1` (stereo not shown) [Lumefantrine], the entry is “inactive”. For `C[C@H]1[C@H](OC(=O)CCC(=O)O)O[C@@H]2O[C@@]3(C)CC[C@H]4[C@H](C)CC[C@@H]1[C@@]24OO3` [Artesunate], the IC50 in experiment [1] (Zaire ebolavirus, HeLa, read-out: IC50 (EBOV inhibitory activity)) was determined as 8.2 µM. As to `C[C@H]1Cc2c([nH]c3cc(Cl)c(F)cc23)[C@@]2(N1)C(=O)Nc1ccc(Cl)cc12` [Cipargamin], the selectivity indexes in experiment [1] is given as less than 5. As to `CCN(CC)Cc1cc(Nc2ccnc3cc(Cl)ccc23)ccc1O` [amodiaquine], in experiment [3], the IC50 is 2.6 µM. Take `Clc1ccc2c(N3CCN(CCCN4CCN(c5ccnc6cc(Cl)ccc56)CC4)CC3)ccnc2c1` [Piperaquine Phosphate 4H20]: the “EBOV activity (in words)” value in experiment [1] is “inactive”.

Turning to `CCN(CC)CCCC(C)Nc1ccnc2cc(Cl)ccc12` (stereo not shown) [chloroquine], the EC50 in experiment [4] was 4 µM.
